Assay [1] addresses T1, TBK1 (Homo sapiens, UniProt Q9UHD2).
T1 sequence (Q9UHD2 1-729): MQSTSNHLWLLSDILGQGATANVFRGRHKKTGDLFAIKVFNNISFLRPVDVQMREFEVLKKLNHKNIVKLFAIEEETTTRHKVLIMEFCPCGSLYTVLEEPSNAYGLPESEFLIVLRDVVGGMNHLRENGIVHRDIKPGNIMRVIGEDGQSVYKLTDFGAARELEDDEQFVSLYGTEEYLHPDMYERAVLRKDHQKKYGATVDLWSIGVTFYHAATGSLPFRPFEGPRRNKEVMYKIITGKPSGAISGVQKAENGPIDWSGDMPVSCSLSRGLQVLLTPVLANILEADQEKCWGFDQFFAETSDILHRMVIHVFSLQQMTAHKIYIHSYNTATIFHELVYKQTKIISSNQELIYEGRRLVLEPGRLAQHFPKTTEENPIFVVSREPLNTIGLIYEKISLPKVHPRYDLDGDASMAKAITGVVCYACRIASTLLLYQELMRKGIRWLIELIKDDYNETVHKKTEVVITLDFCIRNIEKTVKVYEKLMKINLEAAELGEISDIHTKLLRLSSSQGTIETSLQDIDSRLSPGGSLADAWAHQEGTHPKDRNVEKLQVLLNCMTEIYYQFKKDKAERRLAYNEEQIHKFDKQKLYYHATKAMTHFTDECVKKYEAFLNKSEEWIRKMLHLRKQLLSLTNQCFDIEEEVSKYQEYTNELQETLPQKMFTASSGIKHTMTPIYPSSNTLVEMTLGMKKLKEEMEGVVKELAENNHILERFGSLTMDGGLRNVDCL
Kind of assay: TBK biochemical assay. The settings on record: 10 point 1:4 dose response, 30 uM top concentration, 90 min at 25° C., LabChip EZ Reader II; read-out: TBK1_IC50. The method in brief: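 Substrate and product were separated and quantified by microfluidic mobility-shift read (LabChip). 10 uM staurosporine served as the full-inhibition control, and the reference compound was tested from 1 uM final.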

Assay [2] addresses T2, IKKε (Homo sapiens, UniProt Q14164).
T2 sequence (Q14164 1-716): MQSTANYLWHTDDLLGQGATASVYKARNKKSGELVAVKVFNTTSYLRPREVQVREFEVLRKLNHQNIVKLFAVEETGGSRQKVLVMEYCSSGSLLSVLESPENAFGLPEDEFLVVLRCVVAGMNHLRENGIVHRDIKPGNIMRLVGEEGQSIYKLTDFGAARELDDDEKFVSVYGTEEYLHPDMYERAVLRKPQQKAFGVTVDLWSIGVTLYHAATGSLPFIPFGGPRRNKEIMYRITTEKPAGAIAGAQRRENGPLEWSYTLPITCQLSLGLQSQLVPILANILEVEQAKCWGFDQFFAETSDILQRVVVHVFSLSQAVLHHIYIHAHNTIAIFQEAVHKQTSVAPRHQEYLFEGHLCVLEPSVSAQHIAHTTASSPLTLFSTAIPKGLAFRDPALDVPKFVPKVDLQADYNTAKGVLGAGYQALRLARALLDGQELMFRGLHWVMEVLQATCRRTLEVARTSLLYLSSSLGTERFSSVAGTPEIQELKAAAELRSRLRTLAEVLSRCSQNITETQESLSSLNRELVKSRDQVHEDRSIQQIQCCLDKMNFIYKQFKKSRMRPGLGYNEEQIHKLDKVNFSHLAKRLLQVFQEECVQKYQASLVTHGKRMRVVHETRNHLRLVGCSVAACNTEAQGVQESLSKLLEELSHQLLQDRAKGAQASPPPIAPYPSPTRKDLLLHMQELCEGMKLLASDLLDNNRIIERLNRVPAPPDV
Nature of the assay: IKKε biochemical assay. The settings on record: 10 point 1:4 dose response, 30 uM top concentration, 90 min at 25° C., LabChip EZ Reader II; read-out: IKKε_IC50. The method in brief:
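Compounds in 1% DMSO final were incubated with IKKε enzyme and substrate at 25° C. for 90 min, then stopped. Substrate and product peaks were resolved by LabChip EZ Reader II mobility-shift read-out. Staurosporine at 10 uM final served as the full-inhibition control.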

Structures can show the parent of a compound that is named as a salt.

Regarding `N#Cc1cc(-c2ccnc(Nc3ccc(N4CCN(C5CC5)CC4)cc3)n2)ccc1OC1CCOCC1` [Example 134, 5-{2-[4-(4-Cyclopropyl-piperazin-1-yl)-phenylamino]-pyrimidin-4-yl}-2-(tetrahydro-pyran-4-yloxy)-benzonitrile], the IC50 in assay [1] and in assay [2] was less than 100 nM throughout.
Consider `COc1cc(Nc2nccc(-c3ccc(OC4CCN(C(=O)[C@H](C)O)CC4)c(C#N)c3)n2)cnc1N1CCN(C2COC2)CC1` [Example 320, 2-([1-[(2S)-2-hydroxypropanoyl]piperidin-4-yl]oxy)-5-[2-([5-methoxy-6-[4-(oxetan-3-yl)piperazin-1-yl]pyridin-3-yl]amino)pyrimidin-4-yl]benzonitrile], for which the IC50 in assay [1] and in assay [2] was less than 100 nM each time.
Take `COc1nc(Nc2nccc(-c3ccc(O[C@@H]4CCN(C(=O)[C@H](C)O)C[C@@H]4F)c(C#N)c3)n2)ccc1N1CCN(C2COC2)CC1` [Example 331, 2-[[(3S,4R)-3-fluoro-1-[(2S)-2-hydroxypropanoyl]piperidin-4-yl]oxy]-5-[2-([6-methoxy-5-[4-(oxetan-3-yl)piperazin-1-yl]pyridin-2-yl]amino)pyrimidin-4-yl]benzonitrile]: the figures for the IC50 in assay [1] and in assay [2] were less than 100 nM and 100 to 1000 nM, respectively.
Take `COc1cccc(Nc2nccc(-c3ccc(OC4CCN(C(=O)c5n[nH]c(C)n5)CC4)c(C#N)c3)n2)n1` [Example 218, 5-[2-[(6-methoxypyridin-2-yl)amino]pyrimidin-4-yl]-2-[[1-(5-methyl-1H-1,2,4-triazole-3-carbonyl)piperidin-4-yl]oxy]benzonitrile]: the IC50 in assay [1] and in assay [2] was less than 100 nM throughout.
As for `COc1nc(Nc2nccc(-c3ccc(OC4CN(C(=O)[C@@H](C)O)C4)c(C#N)c3)n2)ccc1N1CCN(C2COC2)CC1` [Example 176, 2-([1-[(2R)-2-hydroxypropanoyl]azetidin-3-yl]oxy)-5-[2-([6-methoxy-5-[4-(oxetan-3-yl)piperazin-1-yl]pyridin-2-yl]amino)pyrimidin-4-yl]benzonitrile], the IC50 in assay [1] lay in the range of 100 to 1000 nM; in assay [2], 1000 to 5000 nM.
In the case of `COc1nc(Nc2nccc(-c3ccc(OC4CCN(C(=O)[C@H](C)O)CC4(F)F)c(C#N)c3)n2)ccc1N1CCN(C2COC2)C[C@H]1C` (stereo partly drawn) [Example 132, 2-[3,3-Difluoro-1-((S)-2-hydroxy-propionyl)-piperidin-4-yloxy]-5-{2-[6-methoxy-5-((R)-2-methyl-4-oxetan-3-yl-piperazin-1-yl)-pyridin-2-ylamino]-pyrimidin-4-yl}-benzonitrile], the IC50 in assay [1] and in assay [2] was less than 100 nM throughout.
With `COc1cc(Nc2nccc(-c3cc(C#N)c(OC4CCOCC4)cn3)n2)ncc1N1CCN(C)CC1` [Example 55, 2-(2-[[4-methoxy-5-(4-methylpiperazin-1-yl)pyridin-2-yl]amino]pyrimidin-4-yl)-5-(oxan-4-yloxy)pyridine-4-carbonitrile hydrochloride], the IC50 in assay [1] and in assay [2] was greater than 5000 nM in each case.
For the compound `COc1nc(Nc2nccc(-c3ccc(OC4CCN(C(=O)[C@H](C)O)C(C)C4)c(C#N)c3)n2)ccc1N1CCN(C2COC2)CC1` (stereo partly drawn) [Example 266, 2-[1-((S)-2-Hydroxy-propionyl)-2-methyl-piperidin-4-yloxy]-5-{2-[6-methoxy-5-(4-oxetan-3-yl-piperazin-1-yl)-pyridin-2-ylamino]-pyrimidin-4-yl}-benzonitrile], the IC50 in assay [1] and in assay [2] was less than 100 nM in each case.
In the case of `COc1cc(C(=O)N(C)C)ncc1Nc1nccc(-c2ccc(OC3CCOCC3)c(C#N)c2)n1` [Example 47, 5-([4-[3-cyano-4-(oxan-4-yloxy)phenyl]pyrimidin-2-yl]amino)-4-methoxy-N,N-dimethylpyridine-2-carboxamide], the IC50 in assay [1] was less than 100 nM; in assay [2], 100 to 1000 nM.
Consider `COc1nc(Nc2nccc(-c3ccc(OC4CCNCC4(F)F)c(C#N)c3)n2)ccc1N1CCN(C2COC2)[C@H](C)C1` (stereo partly drawn) [Example 124, 2-(3,3-Difluoro-piperidin-4-yloxy)-5-{2-[6-methoxy-5-((R)-3-methyl-4-oxetan-3-yl-piperazin-1-yl)-pyridin-2-ylamino]-pyrimidin-4-yl}-benzonitrile], for which the IC50 in assay [1] and in assay [2] was less than 100 nM in each case.
Take `COc1nc(Nc2nccc(-c3ccc(O[C@H]4CCN(C(=O)CO)CC4(F)F)c(C#N)c3)n2)ccc1N1CCN(C)CC1` [Example 100, 2-[[(4S)-3,3-difluoro-1-(2-hydroxyacetyl)piperidin-4-yl]oxy]-5-(2-[[6-methoxy-5-(4-methylpiperazin-1-yl)pyridin-2-yl]amino]pyrimidin-4-yl)benzonitrile]: the IC50 in assay [1] and in assay [2] was less than 100 nM in each case.
Regarding `COc1nc(Nc2nccc(-c3ccc(O[C@H]4CCN(C(=O)[C@H](C)O)C[C@H]4F)c(C#N)c3)n2)ccc1N1CCN(C)CC1` [Example 201, 2-[[(3R,4S)-3-fluoro-1-[(2S)-2-hydroxypropanoyl]piperidin-4-yl]oxy]-5-(2-[[6-methoxy-5-(4-methylpiperazin-1-yl)pyridin-2-yl]amino]pyrimidin-4-yl)benzonitrile], the IC50 in assay [1] and in assay [2] was less than 100 nM in each case.
With `COc1nc(Nc2nccc(-c3ccc(OC4CCOCC4)c(C#N)c3)n2)ccc1C(=O)N[C@H]1[C@@H]2C[C@H]1CN(C)C2` [Example 19, 6-([4-[3-cyano-4-(oxan-4-yloxy)phenyl]pyrimidin-2-yl]amino)-2-methoxy-N-[(1R,5S,6R)-3-methyl-3-azabicyclo[3.1.1]heptan-6-yl]pyridine-3-carboxamide], the IC50 in assay [1] and in assay [2] was less than 100 nM in each case.
Take `COc1nc(Nc2nccc(-c3ccc(OC4CCN(C(=O)[C@@H]5CCCO5)CC4(F)F)c(C#N)c3)n2)ccc1N1CCN(C2COC2)CC1` (stereo partly drawn) [Example 254, 2-[3,3-Difluoro-1-((S)-tetrahydro-furan-2-carbonyl)-piperidin-4-yloxy]-5-{2-[6-methoxy-5-(4-oxetan-3-yl-piperazin-1-yl)-pyridin-2-ylamino]-pyrimidin-4-yl}-benzonitrile]: the IC50 in assay [1] and in assay [2] was less than 100 nM in each case.
Take `COc1nc(Nc2nccc(-c3ccc(O[C@H]4CCN(C(=O)[C@@H](C)O)C[C@@H]4F)c(C#N)c3)n2)ccc1C1CCN(C2COC2)CC1` [Example 188, 2-[(3S,4S)-3-Fluoro-1-((R)-2-hydroxy-propionyl)-piperidin-4-yloxy]-5-[2-(2-methoxy-1′-oxetan-3-yl-1′,2′,3′,4′,5′,6′-hexahydro-[3,4′]bipyridinyl-6-ylamino)-pyrimidin-4-yl]-benzonitrile]: the IC50 in assay [1] and in assay [2] was less than 100 nM in each case.
Turning to `COc1nc(Nc2nccc(-c3ccc(O[C@H]4CCNC[C@H]4F)c(C#N)c3)n2)ccc1C(=O)N(C)C` [Example 74, 6-[[4-(3-cyano-4-[[(3R,4S)-3-fluoropiperidin-4-yl]oxy]phenyl)pyrimidin-2-yl]amino]-2-methoxy-N,N-dimethylpyridine-3-carboxamide], the IC50 in assay [1] and in assay [2] was less than 100 nM in each case.
In the case of `COc1nc(Nc2nccc(-c3ccc(O[C@H]4CCNC[C@H]4F)c(C#N)c3)n2)ccc1N1CCN(C2COC2)CC1` [Example 198, 2-[[(3R,4S)-3-fluoropiperidin-4-yl]oxy]-5-[2-([6-methoxy-5-[4-(oxetan-3-yl)piperazin-1-yl]pyridin-2-yl]amino)pyrimidin-4-yl]benzonitrile], the IC50 in assay [1] and in assay [2] was less than 100 nM in each case.

For the origin of these results see US20230019491A1, “PYRIMIDINE TBK/IKKe INHIBITOR COMPOUNDS AND USES THEREOF” (Merck Patent GmbH, priority 2017, published 2023).
